From patent US20150297629A1, “MODULATION OF RENIN-ANGIOTENSIN SYSTEM (RAS) RELATED DISEASES BY ANGIOTENSINOGEN” (Isis Pharmaceuticals, Inc,, priority 2012, published 2015)

Tests used:
[1] = tested on: female SHR rats; assay: Blood pressure by tail-cuff method in female SHR rats with subsequent Captopril, Study 2; format: in vivo, Spontaneously hypertensive (SHR) rats; conditions: Captopril 50 mg/kg/day for 4 days, no ASO
Procedure: A control group of female SHR rats was injected with phosphate buffered saline (PBS) administered weekly for 2 weeks. Another control group constituted a group of wild-type rats injected with phosphate buffered saline (PBS) administered weekly for 2 weeks. […] Systolic blood pressure (SBP), mean arterial pressure (MAP), and diastolic blood pressure (DBP) in the rats was measured by the tail-cuff volume-pressure method (Kent Scientific, Torrington, Conn.).

[2] = tested on: SHR; assay: Mean arterial pressure by tail-cuff method in SHR, Study 3; format: in vivo, Spontaneously hypertensive (SHR) rats; conditions: ISIS 552668 and control oligonucleotide 100 mg/kg/week, Captopril 150 mg/kg/day
Procedure: A control group of SHR was injected with phosphate buffered saline (PBS) administered weekly for 3 weeks. Another control group of SHR was injected with 100 mg/kg/week of a control oligonucleotide (a nucleotide not targeted to angiotensinogen) administered for 3 weeks. […] Mean arterial pressure (MAP) in the rats was measured by the tail-cuff volume-pressure method (Kent Scientific, Torrington, Conn.).

[3] = tested on: angiotensinogen mRNA; assay: Real-time PCR of angiotensinogen mRNA in SHR tissues, Study 3; format: in vivo, Spontaneously hypertensive (SHR) rats; conditions: 3 weeks, oligonucleotides 100 mg/kg/week, Captopril 150 mg/kg/day
Procedure: (§1) A group of SHR was injected with 100 mg/kg/week of ISIS 552668 administered for 3 weeks. A control group of SHR was injected with phosphate buffered saline (PBS) administered weekly for 3 weeks. Another control group of SHR was injected with 100 mg/kg/week of a control oligonucleotide (a nucleotide not targeted to angiotensinogen) administered for 3 weeks.
[…] The mRNA levels were normalized using the housekeeping gene, GAPDH. […] Results are presented as percent inhibition of angiotensinogen, relative to control.

[4] = tested on: renin mRNA; assay: Real-time PCR of kidney renin mRNA in SHR, Study 3; format: in vivo, Spontaneously hypertensive (SHR) rats; conditions: 3 weeks
Procedure: A control group of SHR was injected with phosphate buffered saline (PBS) administered weekly for 3 weeks. Another control group of SHR was injected with 100 mg/kg/week of a control oligonucleotide (a nucleotide not targeted to angiotensinogen) administered for 3 weeks. […] RNA was extracted from kidney tissue for real-time PCR analysis of renin, using primer probe set rRenin2 (forward sequence [NT], designated herein as SEQ ID NO: 21; reverse sequence [NT], designated herein as SEQ ID NO: 22; probe sequence [NT], designated herein as SEQ ID NO: 23). The mRNA levels were normalized using the housekeeping gene, GAPDH. […] Increase in renin in the body is deleterious to the overall health of the animal (Nguyen and Muller, The Biology of the (Pro)Renin Receptor, J Am Soc Nephrol, 2010 January, 21(1):18-23). […] Results are presented as percent expression of renin, relative to control.

[5] = tested on: angiotensinogen protein; assay: ELISA of angiotensinogen plasma levels in SHR, Study 3; format: in vivo, Spontaneously hypertensive (SHR) rats; conditions: 3 weeks, oligonucleotides 100 mg/kg/week, Captopril 150 mg/kg/day
Procedure: as §1
Angiotensinogen plasma levels were measured by ELISA (IBL International, Toronto, Canada). […] Results are presented as percent inhibition of angiotensinogen, relative to PBS control.

[6] = tested on: SHR; assay: Systolic blood pressure by tail-cuff method in SHR before and after ISIS 552668 added to chronic Captopril, Study 4; format: in vivo, Spontaneously hypertensive (SHR) rats; conditions: for Blood pressure (SBP), After ISIS 552668 dosing: then 50 mg/kg ISIS 552668 added
[7] = tested on: Dahl/SS rats; assay: Blood pressure by tail-cuff method in Dahl/SS rats; format: in vivo, Dahl/Salt Sensititive (Dahl/SS) rats; conditions: female Dahl/SS rats, 8% NaCl diet; 3 weeks; ISIS oligonucleotides 40 mg/kg/week, Captopril 150 mg/kg daily
Procedure: The rats were fed a diet with 8% NaCl. A group of female Dahl/SS rats was injected with 40 mg/kg/week of ISIS 552668 administered for 3 weeks. A group of female Dahl/SS rats was injected with 40 mg/kg/week of control oligonucleotides ISIS 141923 administered for 3 weeks. […] A control group of female Dahl/SS rats was injected with phosphate buffered saline (PBS) administered weekly for 3 weeks. Another control group constituted a group of Dahl/Salt Resistant (Dahl/SR) rats injected with phosphate buffered saline (PBS) administered weekly for 3 weeks.
Systolic blood pressure (SBP), mean arterial pressure (MAP), and diastolic blood pressure (DBP) in the rats was measured by the tail-cuff volume-pressure method (Kent Scientific). The results are presented in Table 12, expressed as the percent decrease in blood pressure compared to the control SHR group.

[8] = Captopril 25 mg/kg/day for 10 weeks
[9] = Captopril 50 mg/kg/day for 10 weeks
[10] = Captopril 100 mg/kg/day for 10 weeks

C[C@H](CS)C(=O)N1CCC[C@H]1C(=O)O [Captopril, reference compound]
DBP [1]: 97 mm Hg
MAP [1]: 113 mm Hg
SBP [1]: 145 mm Hg
MAP, Week 1 [2]: 107 mm Hg
MAP, Week 2 [2]: 109 mm Hg
MAP, Week 3 [2]: 112 mm Hg
Percent inhibition of angiotensinogen mRNA compared to the PBS control, Heart [3]: 0%
Percent inhibition of angiotensinogen mRNA compared to the PBS control, Kidney [3]: 41%
Percent inhibition of angiotensinogen mRNA compared to the PBS control, Liver [3]: 0%
Induction of kidney renin expression compared to that with ISIS 552668 ([4]; Captopril 150 mg/kg/day versus ISIS 552668 100 mg/kg/week): about three-fold
Percent increase of kidney renin mRNA ([4]; oligonucleotides 100 mg/kg/week, Captopril 150 mg/kg/day, PBS = 100): 1110%
Percent inhibition of angiotensinogen protein in the plasma compared to the PBS control [5]: 24%
Blood pressure (SBP), Before ISIS 552668 dosing [6, 8]: 159
Blood pressure (SBP), After ISIS 552668 dosing [6, 8]: 153
Blood pressure (SBP), Before ISIS 552668 dosing [6, 9]: 147
Blood pressure (SBP), After ISIS 552668 dosing [6, 9]: 133
Blood pressure (SBP), Before ISIS 552668 dosing [6, 10]: 137
Blood pressure (SBP), After ISIS 552668 dosing [6, 10]: 127
Blood pressure (SBP), Before ISIS 552668 dosing ([6]; Captopril 200 mg/kg/day for 10 weeks): 135
DBP [7]: 111 mm Hg
MAP [7]: 128 mm Hg
SBP [7]: 162 mm Hg
